These are literature values, as cited in patent publication US20230130225A1, “METHOD OF TREATING AMYOTROPHIC LATERAL SCLEROSIS WITH MYELOPEROXIDASE INHIBITOR” (Biohaven Therapeutics Ltd., priority 2020, published 2023).

Read-outs that look alike come from different tables or passages of the source.

For series [1] the following is noted: subjects with MSA, 12 weeks, 600 mg BID.
The next series addresses T1, MPO (Homo sapiens, UniProt P05164).
T1 construct: from tissue; host or cells: plasma of clinical study participants
The conditions noted are these: 600 mg BID, Phase 2 studies.

In another series the test system is TSPO. The conditions noted are these: 600 mg BID, Phase 2 studies.
For series [2] the following is noted: healthy subjects, multiple dosages of up to 900 mg BID.
For series [3] the following is noted: participants with Parkinson's disease and MSA, dosages of up to 600 mg BID for 8-12 weeks.

T1 sequence (P05164 279-745 limits assumed): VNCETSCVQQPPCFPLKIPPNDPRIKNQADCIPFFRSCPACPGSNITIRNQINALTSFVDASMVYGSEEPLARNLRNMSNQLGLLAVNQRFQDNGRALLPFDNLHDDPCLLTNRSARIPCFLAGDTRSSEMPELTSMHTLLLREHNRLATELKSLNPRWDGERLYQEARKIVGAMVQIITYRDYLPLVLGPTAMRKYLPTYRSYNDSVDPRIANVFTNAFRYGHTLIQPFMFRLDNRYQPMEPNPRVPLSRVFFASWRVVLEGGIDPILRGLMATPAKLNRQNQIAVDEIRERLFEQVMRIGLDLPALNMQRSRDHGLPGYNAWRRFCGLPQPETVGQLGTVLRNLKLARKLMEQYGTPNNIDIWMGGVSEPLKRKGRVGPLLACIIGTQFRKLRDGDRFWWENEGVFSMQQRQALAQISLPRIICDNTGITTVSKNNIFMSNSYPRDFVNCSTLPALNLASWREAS
T1 sequence (P05164 165-273 limits assumed): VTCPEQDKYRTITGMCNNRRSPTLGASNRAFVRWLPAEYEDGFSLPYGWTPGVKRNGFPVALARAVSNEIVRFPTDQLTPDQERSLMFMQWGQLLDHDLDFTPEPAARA

Turning to `CC(C)OCCn1c(=S)[nH]c(=O)c2[nH]ccc21` [verdiperstat, 1-(2-isopropoxyethyl)-2-thioxo-1,2,3,5-tetrahydro-pyrrolo[3,2-d]pyrimidin-4-one], in series [1], the “trends on clinical efficacy measures” value was “favorable, dose-dependent trends”. The “MPO activity in plasma” value on MPO is “decreased”. Moreover, in the series on TSPO, the “TSPO binding on brain PET imaging (microglial activation/neuroinflammation)” value is listed as “reduced”. For the same compound, the safety and tolerability result in series [2] was “generally safe and well tolerated”; in series [3], “generally safe and well tolerated”.
